Measurements: the supplement of paper PMC7645387

Experiments:
Experiment in all cases: growth inhibition relative to DMSO control (fraction); higher = stronger growth inhibition
Settings in all cases: treatment time: 6 days
HDFB = tested on: HDFB
Protocol: (§1)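 Drug combination matrices: GSK-LSD1 (0, 1, 10, 100 nM) was combined with a second epigenetic drug (0 to 10 uM) on MCC lines PeTa and MKL-1 and on HDFB fibroblasts for 6 days, in quadruplicate. Viability was read by CellTiter-Glo 2.0. The response is the fraction of growth inhibition relative to DMSO, as input to synergyfinder Bliss analysis.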

PeTa = tested on: PeTa
Protocol: as §1

MKL-1 = tested on: MKL-1
Protocol: as §1

[1] = GSK-LSD1 concentration 0 nM, partner concentration 1 nM
[2] = GSK-LSD1 concentration 0 nM, partner concentration 10 nM
[3] = GSK-LSD1 concentration 0 nM, partner concentration 100 nM
[4] = GSK-LSD1 concentration 0 nM, partner concentration 1000 nM
[5] = GSK-LSD1 concentration 0 nM, partner concentration 10000 nM
[6] = GSK-LSD1 concentration 1 nM, partner concentration 0 nM
[7] = GSK-LSD1 concentration 1 nM, partner concentration 1 nM
[8] = GSK-LSD1 concentration 1 nM, partner concentration 10 nM
[9] = GSK-LSD1 concentration 1 nM, partner concentration 100 nM
[10] = GSK-LSD1 concentration 1 nM, partner concentration 1000 nM
[11] = GSK-LSD1 concentration 1 nM, partner concentration 10000 nM
[12] = GSK-LSD1 concentration 10 nM, partner concentration 0 nM
[13] = GSK-LSD1 concentration 10 nM, partner concentration 1 nM
[14] = GSK-LSD1 concentration 10 nM, partner concentration 10 nM
[15] = GSK-LSD1 concentration 10 nM, partner concentration 100 nM
[16] = GSK-LSD1 concentration 10 nM, partner concentration 1000 nM
[17] = GSK-LSD1 concentration 10 nM, partner concentration 10000 nM
[18] = GSK-LSD1 concentration 100 nM, partner concentration 0 nM
[19] = GSK-LSD1 concentration 100 nM, partner concentration 1 nM
[20] = GSK-LSD1 concentration 100 nM, partner concentration 10 nM
[21] = GSK-LSD1 concentration 100 nM, partner concentration 100 nM
[22] = GSK-LSD1 concentration 100 nM, partner concentration 1000 nM
[23] = GSK-LSD1 concentration 100 nM, partner concentration 10000 nM

**Q.** Which growth inhibition (HDFB; [1]) does the source give for `c1ccc([C@@H]2C[C@H]2NC2CCNCC2)cc1` [GSK-LSD1] + CCOC(=O)NCCCC(=O)NCCc1ccccc1 [Santacruzamate A] here?
**A.** 0.0152

**Q.** And the growth inhibition (HDFB; [2])?
**A.** 0.0273

**Q.** What about the growth inhibition (HDFB; [3]) of the same molecule?
**A.** -0.00476

**Q.** What about the growth inhibition (HDFB; [4]) of the same molecule?
**A.** 0.025

**Q.** What about the growth inhibition (HDFB; [5]) of the same molecule?
**A.** -0.0257

**Q.** And the growth inhibition (HDFB; [6])?
**A.** 0.0274

**Q.** And the growth inhibition (HDFB; [7])?
**A.** 0.0683

**Q.** What about the growth inhibition (HDFB; [8]) of the same molecule?
**A.** 0.0641

**Q.** And the growth inhibition (HDFB; [9])?
**A.** 0.0608

**Q.** And the growth inhibition (HDFB; [10])?
**A.** 0.0549

**Q.** What about the growth inhibition (HDFB; [11]) of the same molecule?
**A.** 0.0385

**Q.** And the growth inhibition (HDFB; [12])?
**A.** 0.103

**Q.** And the growth inhibition (HDFB; [13])?
**A.** 0.132

**Q.** And the growth inhibition (HDFB; [14])?
**A.** 0.111

**Q.** What about the growth inhibition (HDFB; [15]) of the same molecule?
**A.** 0.109

**Q.** And the growth inhibition (HDFB; [16])?
**A.** 0.0931

**Q.** What about the growth inhibition (HDFB; [17]) of the same molecule?
**A.** 0.0944

**Q.** And the growth inhibition (HDFB; [18])?
**A.** 0.209

**Q.** What about the growth inhibition (HDFB; [19]) of the same molecule?
**A.** 0.215

**Q.** And the growth inhibition (HDFB; [20])?
**A.** 0.245

**Q.** And the growth inhibition (HDFB; [21])?
**A.** 0.258

**Q.** What about the growth inhibition (HDFB; [22]) of the same molecule?
**A.** 0.258

**Q.** What about the growth inhibition (HDFB; [23]) of the same molecule?
**A.** 0.248

**Q.** And the growth inhibition (PeTa; [1])?
**A.** -0.00232

**Q.** And the growth inhibition (PeTa; [2])?
**A.** 0.00932

**Q.** What about the growth inhibition (PeTa; [3]) of the same molecule?
**A.** 0.0171

**Q.** And the growth inhibition (PeTa; [4])?
**A.** -0.000556

**Q.** And the growth inhibition (PeTa; [5])?
**A.** -0.0248

**Q.** What about the growth inhibition (PeTa; [6]) of the same molecule?
**A.** 0.0188

**Q.** And the growth inhibition (PeTa; [7])?
**A.** 0.0434

**Q.** And the growth inhibition (PeTa; [8])?
**A.** 0.0394

**Q.** What about the growth inhibition (PeTa; [9]) of the same molecule?
**A.** 0.0494

**Q.** And the growth inhibition (PeTa; [10])?
**A.** 0.0221

**Q.** And the growth inhibition (PeTa; [11])?
**A.** -0.00432

**Q.** And the growth inhibition (PeTa; [12])?
**A.** 0.412

**Q.** What about the growth inhibition (PeTa; [13]) of the same molecule?
**A.** 0.412

**Q.** What about the growth inhibition (PeTa; [14]) of the same molecule?
**A.** 0.418

**Q.** What about the growth inhibition (PeTa; [15]) of the same molecule?
**A.** 0.432

**Q.** And the growth inhibition (PeTa; [16])?
**A.** 0.466

**Q.** What about the growth inhibition (PeTa; [17]) of the same molecule?
**A.** 0.403

**Q.** And the growth inhibition (PeTa; [18])?
**A.** 0.786

**Q.** What about the growth inhibition (PeTa; [19]) of the same molecule?
**A.** 0.751

**Q.** What about the growth inhibition (PeTa; [20]) of the same molecule?
**A.** 0.762

**Q.** What about the growth inhibition (PeTa; [21]) of the same molecule?
**A.** 0.748

**Q.** And the growth inhibition (PeTa; [22])?
**A.** 0.793

**Q.** What about the growth inhibition (PeTa; [23]) of the same molecule?
**A.** 0.814

**Q.** And the growth inhibition (MKL-1; [1])?
**A.** 0.00478

**Q.** What about the growth inhibition (MKL-1; [2]) of the same molecule?
**A.** -0.00416

**Q.** And the growth inhibition (MKL-1; [3])?
**A.** -0.0025

**Q.** And the growth inhibition (MKL-1; [4])?
**A.** -0.0148

**Q.** What about the growth inhibition (MKL-1; [5]) of the same molecule?
**A.** -0.0477

**Q.** What about the growth inhibition (MKL-1; [6]) of the same molecule?
**A.** 0.0491

**Q.** And the growth inhibition (MKL-1; [7])?
**A.** 0.0627

**Q.** And the growth inhibition (MKL-1; [8])?
**A.** 0.0768

**Q.** And the growth inhibition (MKL-1; [9])?
**A.** 0.068

**Q.** And the growth inhibition (MKL-1; [10])?
**A.** 0.072

**Q.** And the growth inhibition (MKL-1; [11])?
**A.** 0.014

**Q.** And the growth inhibition (MKL-1; [12])?
**A.** 0.266

**Q.** What about the growth inhibition (MKL-1; [13]) of the same molecule?
**A.** 0.253

**Q.** And the growth inhibition (MKL-1; [14])?
**A.** 0.298

**Q.** And the growth inhibition (MKL-1; [15])?
**A.** 0.281

**Q.** What about the growth inhibition (MKL-1; [16]) of the same molecule?
**A.** 0.242

**Q.** What about the growth inhibition (MKL-1; [17]) of the same molecule?
**A.** 0.184

**Q.** And the growth inhibition (MKL-1; [18])?
**A.** 0.748

**Q.** And the growth inhibition (MKL-1; [19])?
**A.** 0.763

**Q.** And the growth inhibition (MKL-1; [20])?
**A.** 0.741

**Q.** And the growth inhibition (MKL-1; [21])?
**A.** 0.763

**Q.** What about the growth inhibition (MKL-1; [22]) of the same molecule?
**A.** 0.696

**Q.** What about the growth inhibition (MKL-1; [23]) of the same molecule?
**A.** 0.755

**Q.** Which results are given for `c1ccc([C@@H]2C[C@H]2NC2CCNCC2)cc1` [GSK-LSD1] + CN1CCN(c2ccc(-c3cccc(CN4CCOCC4)c3)cc2NC(=O)c2c[nH]c(=O)cc2C(F)(F)F)CC1 [OICR9429]?
**A.** growth inhibition (HDFB; [1]): -0.0114; growth inhibition (HDFB; [2]): 0.00661; growth inhibition (HDFB; [3]): -0.0286; growth inhibition (HDFB; [4]): 0.11; growth inhibition (HDFB; [5]): 0.593; growth inhibition (HDFB; [6]): 0.0144; growth inhibition (HDFB; [7]): 0.0294; growth inhibition (HDFB; [8]): 0.0019; growth inhibition (HDFB; [9]): 0.0389; growth inhibition (HDFB; [10]): 0.171; growth inhibition (HDFB; [11]): 0.68; growth inhibition (HDFB; [12]): 0.091; growth inhibition (HDFB; [13]): 0.0858; growth inhibition (HDFB; [14]): 0.0542; growth inhibition (HDFB; [15]): 0.0911; growth inhibition (HDFB; [16]): 0.22; growth inhibition (HDFB; [17]): 0.651; growth inhibition (HDFB; [18]): 0.149; growth inhibition (HDFB; [19]): 0.113; growth inhibition (HDFB; [20]): 0.145; growth inhibition (HDFB; [21]): 0.139; growth inhibition (HDFB; [22]): 0.282; growth inhibition (HDFB; [23]): 0.676; growth inhibition (PeTa; [1]): -0.0155; growth inhibition (PeTa; [2]): -0.0439; growth inhibition (PeTa; [3]): -0.00944; growth inhibition (PeTa; [4]): 0.0255; growth inhibition (PeTa; [5]): 0.143; growth inhibition (PeTa; [6]): -0.0127; growth inhibition (PeTa; [7]): -0.0233; growth inhibition (PeTa; [8]): -0.0546; growth inhibition (PeTa; [9]): -0.0748; growth inhibition (PeTa; [10]): 0.0274; growth inhibition (PeTa; [11]): 0.0895; growth inhibition (PeTa; [12]): 0.451; growth inhibition (PeTa; [13]): 0.456; growth inhibition (PeTa; [14]): 0.365; growth inhibition (PeTa; [15]): 0.381; growth inhibition (PeTa; [16]): 0.437; growth inhibition (PeTa; [17]): 0.509; growth inhibition (PeTa; [18]): 0.808; growth inhibition (PeTa; [19]): 0.808; growth inhibition (PeTa; [20]): 0.787; growth inhibition (PeTa; [21]): 0.806; growth inhibition (PeTa; [22]): 0.827; growth inhibition (PeTa; [23]): 0.863; growth inhibition (MKL-1; [1]): -0.0407; growth inhibition (MKL-1; [2]): -0.0602; growth inhibition (MKL-1; [3]): -0.0599; growth inhibition (MKL-1; [4]): -0.0444; growth inhibition (MKL-1; [5]): -0.00949; growth inhibition (MKL-1; [6]): 0.0584; growth inhibition (MKL-1; [7]): 0.0967; growth inhibition (MKL-1; [8]): 0.0719; growth inhibition (MKL-1; [9]): 0.0573; growth inhibition (MKL-1; [10]): 0.0606; growth inhibition (MKL-1; [11]): 0.0783; growth inhibition (MKL-1; [12]): 0.357; growth inhibition (MKL-1; [13]): 0.381; growth inhibition (MKL-1; [14]): 0.381; growth inhibition (MKL-1; [15]): 0.355; growth inhibition (MKL-1; [16]): 0.398; growth inhibition (MKL-1; [17]): 0.438; growth inhibition (MKL-1; [18]): 0.717; growth inhibition (MKL-1; [19]): 0.695; growth inhibition (MKL-1; [20]): 0.709; growth inhibition (MKL-1; [21]): 0.735; growth inhibition (MKL-1; [22]): 0.775; growth inhibition (MKL-1; [23]): 0.797
